Data on three compounds can be found in patent US12497642B2, “Incorporation of unnatural nucleotides and methods of use in vivo thereof” (THE SCRIPPS RESEARCH INSTITUTE, priority 2017, dated 2025).

Molecules are shown by their SMILES.

Experiment [1] is described as follows: PCR amplification in vitro (SAR named in the discussion). The format is biochemical. As to conditions: paired with any analog.
Experiment [2] has as its system semi-synthetic organism (SSO) (strain YZ3). Nature of the experiment: Replication and UBP retention in vivo in the semi-synthetic organism (streptavidin biotin shift, PAGE), Example 1. The format is cell-based, Escherichia coli. Conditions: for UBP retention: context 1, dNaMTP 125 μM; for UBP retention in vivo, in words: dTPT3TP analog paired with dNaMTP, discussion. The method, then:
All bacteria were cultured in 100 μL of liquid 2×YT media (casein peptone 16 g/L, yeast extract 10 g/L, NaCl 5 g/L) supplemented with potassium phosphate (50 mM, pH 7) in 96-well microwell plates. When noted, antibiotics were used at the following concentrations: chloramphenicol, 5 μg/mL; ampicillin, 100 μg/mL. Cell growth, indicated as OD600, was measured using a Perkin Elmer EnVision 2103 Multilabel Reader with a 590/20 nm filter. Unless otherwise stated, molecular biology reagents were purchased from New England Biolabs (Ipswich, MA) and were used according to the manufacturer's protocols. As necessary, purification of nucleic acids was accomplished by micro-elution columns (Zymo Research Corp; Irvine, CA). All natural oligonucleotides were purchased from IDT (San Diego, CA), and oligonucleotides containing dNaM were synthesized by Biosearch Technologies (Petaluma, CA) with purification by reverse phase cartridge. Unnatural nucleotide triphosphates were prepared, and confirmed by MALDI-TOF and UV/Vis.
Plasmids containing the dNaM-dTPT3 UBP were prepared and used to transform the semi-synthetic organism (SSO). To create a template for in vivo replication assays, Golden Gate assembly was used to construct a derivative of the pUC19 plasmid in which a single dNaM-dTPT3 UBP was embedded within the TK1 sequence ([…]; […]), a context within which the UBP is well replicated in the SSO. Plasmids were then used to transform the SSO (strain YZ3). Following transformation, the SSO was allowed to recover at 37° C. for 1 h in media containing dNaMTP (125 μM) and dTPT3TP (25 μM). Cells were pelleted by centrifugation, resuspended in fresh media lacking unnatural triphosphates, split into 100-μL aliquots and then used to inoculate cultures containing different pairs of unnatural triphosphates at the specified concentrations. When the cell density reached an OD600 of ˜0.7, cells were pelleted and plasmids were recovered and PCR amplified with d5SICSTP and a biotinylated analog of dNaMTP, and UBP retention was determined by comparing the intensity of the streptavidin shifted and unshifted bands via PAGE.

With `Cc1ccc2c(=O)n(C3CC(O)C(COP(=O)(O)OP(=O)(O)OP(=O)(O)O)O3)ccc2c1` (stereo not drawn) [d5MICSTP], in experiment [1], the PCR amplification entry is “do not support PCR amplification”. Further, the UBP retention result in experiment [2] (dTPT3TP analog 10 μM) was “significant retention”. Besides, the “UBP retention in vivo, in words” value in experiment [2] is “reasonable retention in vivo”; in experiment [2] (listed as d5MICS) it was “reasonably well, but only at low concentration”.
In the case of `O=c1c2ccccc2ccn1C1CC(O)C(COP(=O)(O)OP(=O)(O)OP(=O)(O)O)O1` (stereo not drawn) [dICSTP], the PCR amplification result in experiment [1] is listed as “do not support PCR amplification”. Besides, in experiment [2] (dTPT3TP analog 10 μM), the UBP retention entry is on record as “significant retention”. Also, the “UBP retention in vivo, in words” value in experiment [2] was “reasonable retention in vivo”; in experiment [2] (listed as dICS), “reasonably well, but only at low concentration”.
As for `O=c1c2cccnc2ccn1C1CC(O)C(COP(=O)(O)OP(=O)(O)OP(=O)(O)O)O1` (stereo not drawn) [dNICS], the PCR amplification entry in experiment [1] was “do not support PCR amplification”. Also, the UBP retention entry in experiment [2] (dTPT3TP analog 125 μM) is “significant UBP retention”. In addition, the “UBP retention in vivo, in words” value is “supports UBP retention reasonably well” in experiment [2] and “reasonable retention in vivo” in experiment [2] (listed as dNICSTP).
